Laboratory results from the supplement of paper PMC10307832.

Experiments:
Test in all cases: relative viability (nuclei count vs DMSO), 5 days (fraction); higher = more cells survive
[1] = compound: CC1=CC(=NN1)NC2=CC(=NC(=N2)/C=C/C3=CC=CC=C3)N4CCN(CC4)C + COc1cccc2cc(-c3nc([C@H]4CC[C@H](C(=O)O)CC4)n4ncnc(N)c34)[nH]c12 [OSI-027] (partner 0.5 µM)
How it was run: (§1)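 Each reported value is a median over duplicate plates. It expresses relative viability: treated-well nuclei count divided by vehicle-well nuclei count. Lung cancer cell lines in 1536-well plates were dosed by pin tool a day after seeding, alone with one drug or with a fixed anchor-drug dose plus five library-drug doses (not always all listed) in √10 steps, and nuclei were counted after 5 days.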

Obatoclax + Palbociclib = compound: COC1=CC(c2cc3ccccc3[nH]2)=N/C1=C\c1[nH]c(C)cc1C [Obatoclax] + CC(=O)c1c(C)c2cnc(Nc3ccc(N4CCNCC4)cn3)nc2n(C2CCCC2)c1=O [Palbociclib] (partner 0.5 µM)
How it was run: as §1

Obatoclax + Crizotinib = compound: COC1=CC(c2cc3ccccc3[nH]2)=N/C1=C\c1[nH]c(C)cc1C [Obatoclax] + C[C@@H](Oc1cc(-c2cnn(C3CCNCC3)c2)cnc1N)c1c(Cl)ccc(F)c1Cl [Crizotinib] (partner 1 µM)
How it was run: as §1

Obatoclax + Olaparib = compound: COC1=CC(c2cc3ccccc3[nH]2)=N/C1=C\c1[nH]c(C)cc1C [Obatoclax] + O=C(c1cc(Cc2n[nH]c(=O)c3ccccc23)ccc1F)N1CCN(C(=O)C2CC2)CC1 [Olaparib] (partner 8 µM)
How it was run: as §1

Cell Line | relative viability ([1]; first compound 0.08 µM) | relative viability ([1]; first compound 0.253 µM) | relative viability ([1]; first compound 0.8 µM) | relative viability ([1]; first compound 2.53 µM) | relative viability ([1]; first compound 8 µM) | relative viability (Obatoclax + Palbociclib; first compound 0.01 µM) | relative viability (Obatoclax + Palbociclib; first compound 0.03162 µM) | relative viability (Obatoclax + Palbociclib; first compound 0.1 µM) | relative viability (Obatoclax + Palbociclib; first compound 0.3162 µM) | relative viability (Obatoclax + Palbociclib; first compound 1 µM) | relative viability (Obatoclax + Crizotinib; first compound 0.01 µM) | relative viability (Obatoclax + Crizotinib; first compound 0.03162 µM) | relative viability (Obatoclax + Crizotinib; first compound 0.3162 µM) | relative viability (Obatoclax + Crizotinib; first compound 1 µM) | relative viability (Obatoclax + Olaparib; first compound 0.01 µM) | relative viability (Obatoclax + Olaparib; first compound 0.03162 µM) | relative viability (Obatoclax + Olaparib; first compound 0.1 µM) | relative viability (Obatoclax + Olaparib; first compound 0.3162 µM) | relative viability (Obatoclax + Olaparib; first compound 1 µM) | relative viability (Obatoclax + Crizotinib; first compound 0.1 µM)
ChaGo-K-1 | 0.566 | 0.548 | 0.528 | 0.191 | 0.131 | 0.912 | 0.925 | 0.91 | 0.903 | 0.99 | 1.26 | 0.996 | 1.15 | 1.02 | 0.4 | 0.439 | 0.391 | 0.382 | 0.41 | –
NCI-H23 | 0.417 | 0.563 | 0.539 | 0.291 | 0.115 | 0.49 | 0.548 | 0.496 | 0.475 | 0.39 | 0.555 | 0.507 | 0.527 | 0.282 | 0.288 | 0.369 | 0.398 | 0.28 | 0.206 | 0.469
UMC-11 | 0.494 | 0.458 | 0.339 | 0.141 | 0.133 | 0.373 | 0.346 | 0.33 | 0.322 | 0.373 | 0.671 | 0.615 | 0.682 | 0.346 | 0.316 | 0.448 | 0.43 | 0.415 | 0.289 | 0.53
NCI-H1975 | 0.676 | 0.746 | 0.629 | 0.15 | 0.0749 | 0.557 | 0.55 | 0.285 | 0.542 | 0.177 | 0.969 | 0.897 | 0.79 | 0.518 | 0.78 | 0.695 | 0.746 | 0.744 | 0.288 | 0.962
COR-L 105 | 0.773 | 0.834 | 0.678 | 0.255 | 0.178 | 0.408 | 0.441 | 0.375 | 0.361 | 0.341 | 0.802 | 0.959 | 0.51 | 0.522 | 0.727 | 0.76 | 0.737 | 0.672 | 0.457 | 1
LK-2 | 0.207 | 0.222 | 0.179 | 0.171 | 0.124 | 0.661 | 0.728 | 0.764 | – | 0.825 | 0.243 | 0.179 | 0.231 | 0.257 | 0.806 | 0.81 | 0.768 | 0.695 | 0.762 | 0.236
EKVX | 0.699 | 0.845 | 0.664 | 0.611 | 0.3 | 0.438 | – | 0.393 | 0.388 | 0.386 | 0.867 | 0.979 | 0.914 | 0.643 | 0.842 | – | 0.966 | 0.888 | 0.648 | 0.979
NCI-H2009 | 0.615 | 0.672 | 0.638 | 0.227 | 0.111 | 0.215 | 0.224 | 0.194 | 0.188 | 0.123 | 1.07 | 0.905 | 0.355 | 0.257 | 0.687 | 0.712 | 0.705 | 0.573 | 0.26 | 0.952
NCI-H838 | 0.346 | 0.413 | 0.385 | 0.208 | 0.103 | 0.223 | 0.219 | 0.19 | 0.195 | 0.146 | 0.848 | 0.959 | 0.77 | 0.777 | 0.747 | 0.79 | 0.792 | 0.577 | 0.255 | 0.827
NCI-H2085 | 0.728 | 0.755 | 0.758 | 0.334 | 0.193 | 0.472 | 0.45 | 0.462 | 0.482 | 0.423 | 0.961 | 0.865 | 0.798 | 0.334 | 0.726 | 0.784 | 0.747 | 0.816 | 0.708 | 0.791
